The structures appear in SMILES notation. Counter-ions that a name gives are not always drawn.

The test system of this test is E. faecalis; ATCC #10741. The experiment in a line: Direct Inoculation Filter Assay (residual efficacy on filter paper). The format is cell-based, Enterococcus faecalis. As to conditions: 2.0% ester with 4.0% cetyl alcohol and CHG in dried waxy coatings (Table 3). As for the experimental part:
Direct Innoculation Filter Assay
This is an in vitro assay using filter paper to compare the residual efficacy of different surgical skin prep formulations.
Phosphate Buffered Water solution (PBW) was made by making a 0.25M stock solution by putting 34 grams KH2PO4 into 500 mL of DI water, adjusting the pH to 7.2 with 10N NaOH, and adding enough DI water to make 1 liter. The solution was filtered, sterilized, dispensed into a 1 liter sterile bottle, and stored under refrigeration. Butterfield's PBW was made by adding 1.25 mL of the stock solution to 900 mL of DI water and adding neutralizers, stirring, heating to dissolve the components, and diluting to 1 liter with DI water. The solution was mixed well, dispensed into two 500-mL bottles. The bottles containing the solution were autoclaved for 25 minutes at 121 degree C. The contents were carefully swirled after removing the bottles from the autoclave.
A Standard Sampling Solution (SSS) was prepared which contained: 0.4 grams KH2PO4, 10.1 grams Na2HPO4, 1.0 gram TRITON X-100 surfactant, 3.0 grams lecithin, 30.0 grams TWEEN 80, and deionized water to bring the total volume to 1 liter. […]
Onto each filter disc was pipetted 25 μL of each Example preparation or control. […] After 48 hours, colonies were counted and recorded.
The CFU/mL was determined by multiplying CFU count by dilution rate. The CFU/sample was calculated by multiplying the CFU/mL by 20, the amount of the SSS dilution. The log10 of the CFU/sample was calculated. […]

`CC(C)OC(=O)CCCCC(=O)OC(C)C` [diisopropyl adipate, Diisopropyl adipate]: the “Effect of emollient ester on bactericidal activity of the CHG” value (“Effect of emollient ester” for short) was “significantly enhanced the bactericidal activity of the CHG”.

Turning to `CCCCCCCCCCCCCCCC(=O)OC(C)C` [isopropyl palmitate, Isopropyl palmitate], the “Effect of emollient ester” value is recorded as “did not enhance the activity of the CHG”.

Consider `CCCCOC(=O)CC(O)(CC(=O)OCCCC)C(=O)OCCCC` [tributyl citrate, Tributyl citrate], for which the “Effect of emollient ester” value is “significantly enhanced the bactericidal activity of the CHG”.

The record behind these values is patent US8569384B2, “Antimicrobial compositions” (3M Innovative Properties Company, priority 2006, dated 2013).
